Patent US7423068B2, “Control of parasitic mites of honey bees” (The United States of America as represented by the …, priority 2001, dated 2008)
Marks after values point to notes of the source that are not given here.

Tests used:
Varroa mite = assay: Miticidal activity in 5-frame honey bee colonies (sticky board counts); type: in vivo, Varroa jacobsoni
Description: This set of bioassays was conducted in 5-frame colonies. We tested miticidal activity of 30% concentration 2-heptanone in an acrylic block dispenser. Four colonies were established for each of the following treatments: 2-heptanone, Apistan® (a commercially available miticide for control of Varroa), and no treatment (i.e., Controls). Before each treatment, counts were made of the number of mites that dropped on to Dewill® Varroa Mite Detector Inserts (hereinafter denoted as “sticky boards”) placed at the bottom of colonies for one week (pre-treatment counts). A new sticky board then was inserted at the bottom of each colony, and either a single acrylic block dispenser with 30% 2-heptanone made as in Example 6 (surface area=28.3 cm^2) or a single Apistan® strip was placed between the frames. The Controls comprised no treatment. The number of mites on the sticky boards was counted weekly for 3-4 weeks afterwards (treatment interval). New sticky boards were inserted at the beginning of each week. At the end of the test period, the 2-heptanone and Apistan® were removed, and a new sticky board was inserted on the bottom of the colonies. A new Apistan® strip then was placed in the colonies to kill any remaining mites (post-treatment interval). The number of mites on the sticky board was counted after the colony was exposed to the new Apistan® strip for one week. The % Reduction in the Varroa Population was estimated by summing all the mites counted on the sticky board during the 3 or 4 week treatment interval and dividing it by the total number of mites counted for the colony during both the treatment and post-treatment intervals.
When we removed the acrylic strips from the colony after three weeks, we could still detect the odor of 2-heptanone. We repeated the test with new colonies, and in this trial (Trial-2) left the 2-heptanone and Apistan® strips in the colony for 4 weeks. We then placed the post-treatment Apistan® strips in the colonies.
This test (Trial 3) was carried out in 5-frame colonies as described above except for the following changes. […]

[1] = test system: honey bee (Apis mellifera L.) colony; assay: Influence of 2-heptanone on honey bee colony behavior (two-frame observation hive); type: in vivo
Description: Tests were conducted with 2-heptanone in pure form and in a 30% concentration in acrylic block made as in Example 6 to determine its effects on the honey bee (Apis mellifera L.) colony behavior. A two-frame observation hive (the hive had one frame on the bottom with adult worker bees and brood and a top frame with adult worker bees and honey) with a laying queen was used for the study. […] Within 4 hours the 2-heptanone had evaporated, and the bees returned to the frame, and the fanning stopped.
To test the effects of 2-heptanone in acrylic blocks, we again conducted studies using two frame observation hives arranged as described above. For one week prior to inserting the acrylic blocks, we measured queen ovipositions, and the number of workers bees leaving the hive per 5-minute interval in four observation colonies. We also counted the number of workers in a court surrounding the queen once during the 5-minute interval. We then added one acrylic block dispenser with a surface area of 8.04 cm^2 containing a 30% concentration of 2-heptanone. […] The latter served as Controls.

[2] = test system: honey bee (Apis mellifera L.) colony; assay: Maximum levels of 2-heptanone without negatively impacting bee behavior (observation hive); type: in vivo; settings: pure 2-heptanone up to 500 μL on filter paper (2700 ppm v/v or 0.27%), queenless two-frame hive, 23° C.
Description: A test was conducted with 2-heptanone in pure form to determine its effects on honey bee (Apis mellifera L.) colony behavior and ascertain if there was a maximum dose of 2 heptanone that could induce a colony to leave their hive. Two full sized frames were taken from a colony in our local apiary and placed inside a two-frame observation hive having a total volume of 8565 cm^3.These two frames contained adult worker bees only and were queenless. A 2-day period when no testing occurred was included to allow for colony adjustment to the new dwellings. The observation hive was set up inside a greenhouse with a 2.5 cm tube connected from the side of the observation hive to the side wall of the greenhouse. This tube served as an exit and entrance for the workers.
We fastened a strip of filter paper measuring 7.6 cm by 2.5 cm to the top inside frame of the observation colony with a thumbtack and applied an initial 100 μL of pure 2-heptanone to the filter paper and observed worker behavior. Subsequent applications of 40 μL of 2-heptanone were applied every 4 minutes with observations of worker behavior documented. Ambient temperature at the time of the observations was 23° C. […]
Our experiment ended when 500 μL of pure 2-heptanone was the total amount on our filter paper. Concentration of 500 μL of 2-heptanone in the two-frame observation hive was calculated to be 2700 ppm v/v or 0.27%.

[3] = Diffusion of 2-heptanone from controlled release strip; type: physicochemical; settings: polyurethane core with 60 g 2-heptanone, in 5-frame colony
Description: This test (Trial 3) was carried out in 5-frame colonies as described above except for the following changes. In this test, 2-heptanone was released using a controlled release strip as described in U.S. Pat. No. 5,750,129. In brief, the controlled release strip was composed of a polymer sleeve 20 cm long and 5 cm wide in which a polyurethane core containing 60 g 2-heptanone was sealed. The 2-heptanone strip was placed on the top of the frame (top bar). The controlled diffusion of 2-heptanone through the membrane occurred over a period of 3 weeks. A new 2-heptanone controlled release strip was placed on the top bar after 3 weeks. The Apistan® strip was placed between the frames as described above. The Control comprised no treatment.

[4] = filter paper with 40 μl of pure 2-heptanone

What does the source list for `CCCCCC(C)=O` [2-Heptanone]?
% Reduction in Varroa Mite Population ± S.E. (Varroa mite; Trial 1, 3 week treatment, 30% 2-heptanone acrylic block or single Apistan strip, Control 42.2 ± 7.0): 61.8 ± 8.5 a %; % Reduction in Varroa Mite Population ± S.E. (Varroa mite; Trial 2, 4 week treatment, 30% 2-heptanone acrylic block or single Apistan strip, Control 43.6 ± 4.2): 73.6 ± 13.7 a %; % Reduction in Varroa Mite Population ± S.E. (Varroa mite; Trial 3, controlled release strip with 60 g 2-heptanone on top bar, renewed after 3 weeks, or Apistan strip, Control 69.35 ± 4.8): 87.05 ± 4.4 a %; immediate effect on the bees on the frames ([1]; acrylic block 8.04 cm^2, 30% 2-heptanone): no immediate effect on the bees on the frames; Ovipositions, Post-Treatment ([1]; acrylic block 8.04 cm^2, 30% 2-heptanone, average per 5-minute interval, pretreatment 5.3): 5.3; Workers in court, Post-Treatment ([1]; acrylic block 8.04 cm^2, 30% 2-heptanone, average per 5-minute interval, pretreatment 10.2): 10.2; Foragers leaving, Post-Treatment ([1]; acrylic block 8.04 cm^2, 30% 2-heptanone, average per 5-minute interval, pretreatment 16.1, significantly different p = 0.05): 23.6*; bee behavior after placing 2-heptanone in observation colony [1, 4]: all the bees moved off of the frame and began to fan; time until 2-heptanone evaporated, bees returned to the frame and fanning stopped [1, 4]: ≤ 4 h; bees exiting the observation hive [2]: At no time however, did all bees fully or permanently exit the observation hive; period of controlled diffusion of 2-heptanone through the membrane [3]: 3 weeks
